This passage reports GI50 and TGI results from PubChem BioAssay (NCI).

Test systems include HCT-116 colon; OVCAR-4 ovarian; MALME-3M melanoma; SK-MEL-5 melanoma; KM12 colon; HS 578T breast; HL-60(TB) leukemia; TK-10 renal; K-562 leukemia; BT-549 breast.
Experiment in all cases: NCI anticancer screen, dose series, 48 h

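Cultured in 96-well plates, cells were exposed to test compound for 48 hours across five concentrations. Here, GI50 denotes the concentration required for 50% inhibition of growth. TGI: concentration producing complete growth inhibition.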

In the case of `NC(=Nc1ccc(N)cc1)C(N)=Nc1ccc(N)cc1`, the GI50 is 92.5 µM in the experiment on HCT-116 colon; > 100 µM in the experiment on OVCAR-4 ovarian; 45.9 µM in the experiment on MALME-3M melanoma; > 100 µM in the experiment on SK-MEL-5 melanoma; 61 µM in the experiment with KM12 colon; > 100 µM in the experiment on HS 578T breast. The GI50 in the experiment on HL-60(TB) leukemia is 57.1 µM; in the experiment with TK-10 renal, > 100 µM; in the experiment with K-562 leukemia, 81.8 µM; in the experiment on BT-549 breast it was > 100 µM. In addition, the TGI in the experiment with HCT-116 colon, in the experiment with OVCAR-4 ovarian, with MALME-3M melanoma, in the experiment with SK-MEL-5 melanoma, in the experiment on KM12 colon and in the experiment on HS 578T breast was > 100 µM each time. Further, the TGI in the experiment on HL-60(TB) leukemia, with TK-10 renal, in the experiment on K-562 leukemia and in the experiment with BT-549 breast was > 100 µM in each case.

For `N#CN1CC[C@H](C(=O)Nc2cc3cc(C(N)=O)ccc3cn2)C1`, the GI50 in the experiment with HCT-116 colon is 0.104 µM; with OVCAR-4 ovarian, 0.041 µM; in the experiment with MALME-3M melanoma, 0.0239 µM; in the experiment on SK-MEL-5 melanoma it was 0.105 µM; with KM12 colon, 0.0566 µM; in the experiment with HS 578T breast, 0.0534 µM. The GI50 was 0.109 µM with HL-60(TB) leukemia, 0.232 µM in the experiment with TK-10 renal, 0.131 µM in the experiment on K-562 leukemia and 0.0357 µM in the experiment on BT-549 breast. The TGI amounted to 15.3 µM with HCT-116 colon; 1.6 µM in the experiment on OVCAR-4 ovarian; 0.152 µM with MALME-3M melanoma; 2.21 µM with SK-MEL-5 melanoma; 12 µM in the experiment on KM12 colon; 3.52 µM with HS 578T breast. Besides, the TGI was 0.443 µM in the experiment on HL-60(TB) leukemia, 2.44 µM with TK-10 renal, > 54.2 µM in the experiment with K-562 leukemia and 0.23 µM in the experiment on BT-549 breast.

Regarding `C[C@@H]1COCCN1c1cc(C2([S@@](C)(=N)=O)CC2)nc(-c2ccnc3[nH]ccc23)n1`, the GI50 in the experiment with HCT-116 colon is 7.38 µM; in the experiment on OVCAR-4 ovarian, 3.41 µM; with MALME-3M melanoma it was 7.32 µM; in the experiment on SK-MEL-5 melanoma it was 6.87 µM; in the experiment with KM12 colon, 5.8 µM; with HS 578T breast it was 3.73 µM. Further, the GI50 is 3.87 µM in the experiment with HL-60(TB) leukemia, 6.71 µM with TK-10 renal, 8.91 µM with K-562 leukemia and 2.68 µM with BT-549 breast. The TGI with HCT-116 colon is > 100 µM; with OVCAR-4 ovarian it was 63.9 µM; in the experiment with MALME-3M melanoma it was 54.6 µM; with SK-MEL-5 melanoma, 26.4 µM; with KM12 colon it was > 100 µM; with HS 578T breast, 34.9 µM. Further, the TGI in the experiment on HL-60(TB) leukemia was 41.5 µM; in the experiment with TK-10 renal it was > 71.9 µM; in the experiment with K-562 leukemia it was > 100 µM; in the experiment on BT-549 breast, 23.7 µM.

With `COc1cc(NCCN=C(N)NC(N)=NC(C)C)c2ncccc2c1`, the GI50 in the experiment with HCT-116 colon was 3.63 µM; with OVCAR-4 ovarian, 0.0708 µM; in the experiment on MALME-3M melanoma, 1.6 µM; with SK-MEL-5 melanoma it was 3.4 µM; in the experiment on KM12 colon it was 3.53 µM; in the experiment on HS 578T breast, 13 µM. In addition, the GI50 in the experiment on HL-60(TB) leukemia is 14.3 µM; in the experiment on TK-10 renal, 11.3 µM; in the experiment on K-562 leukemia, 10.7 µM; with BT-549 breast it was 9.66 µM. Also, the TGI was > 100 µM in the experiment with HCT-116 colon; 1.23 µM in the experiment on OVCAR-4 ovarian; 6.71 µM in the experiment on MALME-3M melanoma; 11.7 µM with SK-MEL-5 melanoma; > 41.2 µM in the experiment with KM12 colon; > 75.1 µM with HS 578T breast. Moreover, the TGI is 39.6 µM with HL-60(TB) leukemia, 69.9 µM with TK-10 renal, > 100 µM in the experiment with K-562 leukemia and 29.4 µM in the experiment with BT-549 breast.

Regarding `O=C(Nc1cc(Oc2cc(F)c(NC(=O)C3(C(=O)Nc4ccc(F)cc4)CC3)cc2F)ccn1)C1CC1`, the GI50 in the experiment on HCT-116 colon is 2.27 µM; with OVCAR-4 ovarian, 3.93 µM; in the experiment on MALME-3M melanoma it was 0.324 µM; in the experiment on SK-MEL-5 melanoma it was 1.52 µM; with HS 578T breast, 2.5 µM; in the experiment with HL-60(TB) leukemia, 2.18 µM. The GI50 was 4.14 µM in the experiment on TK-10 renal, 1.9 µM in the experiment with K-562 leukemia and 3.07 µM in the experiment on BT-549 breast. Further, the TGI in the experiment on HCT-116 colon is > 100 µM; in the experiment on OVCAR-4 ovarian, > 30.8 µM; in the experiment with MALME-3M melanoma, 2.47 µM; with SK-MEL-5 melanoma it was 3.47 µM; with KM12 colon, 7.42 µM; in the experiment on HS 578T breast it was 6.82 µM. The TGI is 5.6 µM in the experiment on HL-60(TB) leukemia, > 100 µM in the experiment on TK-10 renal, > 100 µM in the experiment on K-562 leukemia and 7.09 µM in the experiment on BT-549 breast.

`CC1=C[C@H]2C[C@H](C)[C@H]3CC[C@H](C)[C@]4(C1)C(=O)C(O)=C(C)C(=O)[C@@]324`: the GI50 in the experiment on HCT-116 colon was 19.5 µM; in the experiment with OVCAR-4 ovarian, 29.8 µM; in the experiment with MALME-3M melanoma, 23.3 µM; with SK-MEL-5 melanoma, 13.5 µM; in the experiment with KM12 colon it was 29.4 µM; with HS 578T breast, 24.7 µM. The GI50 was 15.7 µM with HL-60(TB) leukemia, 47.4 µM in the experiment with TK-10 renal, 20 µM with K-562 leukemia and 46 µM in the experiment on BT-549 breast. In addition, the TGI with HCT-116 colon is 41.8 µM; in the experiment with OVCAR-4 ovarian, > 100 µM; in the experiment with MALME-3M melanoma, 80.7 µM; with SK-MEL-5 melanoma, 30.8 µM; in the experiment on KM12 colon, > 100 µM; in the experiment on HS 578T breast it was 67.5 µM. Further, the TGI is 33.1 µM in the experiment on HL-60(TB) leukemia, > 100 µM in the experiment with TK-10 renal, 39.5 µM in the experiment on K-562 leukemia and > 100 µM with BT-549 breast.

As for `COc1cccc(C2C3=C(COC3=O)N(CCO)c3cc4c(cc32)OCO4)c1` (stereo unspecified), the GI50 was 0.235 µM in the experiment on HCT-116 colon; 2.32 µM with OVCAR-4 ovarian; 0.177 µM in the experiment on SK-MEL-5 melanoma; 0.192 µM in the experiment on KM12 colon; 0.251 µM in the experiment on HS 578T breast; 0.132 µM with HL-60(TB) leukemia. For the same compound, the GI50 was 0.725 µM in the experiment with TK-10 renal, 0.155 µM in the experiment on K-562 leukemia and 0.45 µM in the experiment on BT-549 breast. Besides, the TGI was > 16.1 µM in the experiment on HCT-116 colon; > 50 µM in the experiment with OVCAR-4 ovarian; > 50 µM in the experiment on MALME-3M melanoma; > 50 µM in the experiment on SK-MEL-5 melanoma; 45.2 µM in the experiment with HS 578T breast; 0.352 µM in the experiment on HL-60(TB) leukemia. Besides, the TGI with K-562 leukemia is > 18.7 µM; in the experiment on BT-549 breast, > 45.1 µM.

As to `O=C1c2ccccc2C(=O)c2sc(Nc3ccccc3Cl)nc21`, the TGI with HCT-116 colon turned out to be 22.9 µM; with OVCAR-4 ovarian, 22.8 µM; with MALME-3M melanoma, 28 µM; with SK-MEL-5 melanoma, 16.4 µM; with KM12 colon it was 29.6 µM; with HS 578T breast, 80.4 µM. Further, the TGI was 4.18 µM in the experiment with HL-60(TB) leukemia, 34.2 µM in the experiment on TK-10 renal, 6.8 µM in the experiment with K-562 leukemia and 29.5 µM with BT-549 breast.
